Experiments:
Experiment in all cases: relative viability (nuclei count vs DMSO), 5 days (fraction); higher = more cells survive
AZD5582 + Tozasertib = compound: C[C@@H](C(=O)N[C@@H](C1CCCCC1)C(=O)N2CCC[C@H]2C(=O)N[C@@H]3[C@@H](CC4=CC=CC=C34)OCC#CC#CCO[C@@H]5CC6=CC=CC=C6[C@@H]5NC(=O)[C@@H]7CCCN7C(=O)[C@H](C8CCCCC8)NC(=O)[C@H](C)NC)NC [AZD5582] + Cc1cc(Nc2cc(N3CCN(C)CC3)nc(Sc3ccc(NC(=O)C4CC4)cc3)n2)n[nH]1 [Tozasertib] (partner 0.1 µM)
Outline: (§1)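 Relative viability is defined as nuclei in treated wells over nuclei in vehicle wells. Duplicate plates were run and medians reported. Lung cancer cell lines in 1536-well plates were dosed by pin tool one day after seeding, with one drug or with a fixed anchor-drug dose plus five library-drug doses (not always all listed) in √10 steps, and nuclei were counted after 5 days.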

[1] = compound: Cn1nnc2c(C(N)=O)ncn2c1=O [Temozolomide] + CC1(C)CCC(c2ccc(Cl)cc2)=C(CN2CCN(c3ccc(C(=O)NS(=O)(=O)c4ccc(N[C@H](CCN5CCOCC5)CSc5ccccc5)c(S(=O)(=O)C(F)(F)F)c4)cc3)CC2)C1 [Navitoclax] (partner 0.5 µM)
Outline: as §1

[2] = compound: Cn1nnc2c(C(N)=O)ncn2c1=O [Temozolomide] + Nc1nc2[nH]cc(CCc3ccc(C(=O)N[C@@H](CCC(=O)O)C(=O)O)cc3)c2c(=O)[nH]1 [Pemetrexed] (partner 0.2 µM)
Outline: as §1

[3] = compound: Cn1nnc2c(C(N)=O)ncn2c1=O [Temozolomide] + C[C@@H](Oc1cc(-c2cnn(C3CCNCC3)c2)cnc1N)c1c(Cl)ccc(F)c1Cl [Crizotinib] (partner 1 µM)
Outline: as §1

| Cell Line | relative viability (AZD5582 + Tozasertib; first compound 0.001581 µM) | relative viability (AZD5582 + Tozasertib; first compound 0.005 µM) | relative viability (AZD5582 + Tozasertib; first compound 0.01581 µM) | relative viability (AZD5582 + Tozasertib; first compound 0.05 µM) | relative viability ([1]; first compound 0.2 µM) | relative viability ([1]; first compound 0.6325 µM) | relative viability ([1]; first compound 2 µM) | relative viability ([1]; first compound 6.325 µM) | relative viability ([1]; first compound 20 µM) | relative viability ([2]; first compound 0.2 µM) | relative viability ([2]; first compound 0.6325 µM) | relative viability ([2]; first compound 2 µM) | relative viability ([2]; first compound 6.325 µM) | relative viability ([2]; first compound 20 µM) | relative viability ([3]; first compound 0.2 µM) | relative viability ([3]; first compound 0.6325 µM) | relative viability ([3]; first compound 2 µM) | relative viability ([3]; first compound 6.325 µM) | relative viability ([3]; first compound 20 µM) |
| --- | --- | --- | --- | --- | --- | --- | --- | --- | --- | --- | --- | --- | --- | --- | --- | --- | --- | --- | --- |
| LOU-NH91 | 0.594 | 0.679 | 0.679 | 0.613 | 0.395 | 0.738 | 0.702 | 0.596 | 0.361 | 0.389 | 0.366 | 0.371 | 0.395 | 0.458 | 0.557 | 0.758 | 0.75 | 0.704 | 0.532 |
| LU99A | 0.252 | 0.349 | 0.289 | 0.279 | 0.894 | 0.781 | 0.733 | 0.713 | 0.746 | 0.208 | 0.179 | 0.175 | 0.185 | 0.252 | 0.592 | 0.601 | 0.6 | 0.557 | 0.515 |
| LXF-289 | 0.195 | 0.192 | 0.18 | 0.191 | 0.98 | 0.91 | 0.946 | 0.937 | 0.847 | 0.941 | 0.877 | 0.868 | 0.857 | 0.868 | 0.825 | 0.82 | 0.761 | 0.791 | 0.76 |
| NCI-H23 | 0.304 | 0.278 | 0.328 | 0.347 | 1.04 | 0.93 | 0.857 | 0.86 | 0.851 | 0.825 | 0.749 | 0.716 | 0.565 | 0.677 | 0.464 | 0.528 | 0.509 | 0.432 | 0.547 |
| NCI-H322M | 0.499 | 0.579 |  | 0.523 |  | 1.36 | 1.28 | 1.21 | 0.967 | 0.56 | 0.591 | 0.635 | 0.499 | 0.536 |  | 0.976 | 1 | 0.882 | 0.715 |
| NCI-H441 | 0.581 | 0.653 |  | 0.587 | 0.692 | 0.628 | 0.926 | 0.542 | 0.789 | 0.28 | 0.309 | 0.272 | 0.257 | 0.236 | 0.717 | 0.824 | 0.775 | 0.766 | 0.78 |
| NCI-H460 | 0.0814 | 0.495 | 0.509 | 0.521 | 1.28 | 1.08 | 1.22 | 1.22 | 1.18 | 0.0579 | 0.0556 | 0.0638 | 0.0585 | 0.0573 | 0.963 | 0.784 | 0.973 | 0.861 | 0.888 |
| NCI-H520 | 0.441 | 0.394 | 0.544 | 0.51 | 1.13 | 1.09 | 1.15 | 1.12 | 1.01 | 0.723 | 0.595 | 0.711 | 0.631 | 0.74 | 0.763 | 0.955 | 0.811 | 0.939 | 0.947 |
| NCI-H596 |  |  | 0.943 | 0.338 | 0.9 | 0.924 | 0.946 | 0.977 | 0.981 | 0.515 | 0.535 | 0.621 | 0.465 | 0.574 | 1.07 | 0.978 | 1.06 | 1.04 | 0.884 |
| NCI-H647 | 0.269 | 0.347 | 0.255 | 0.357 | 1.16 | 1.24 | 1.24 | 0.73 | 0.291 | 0.169 | 0.17 | 0.2 | 0.146 | 0.122 | 1.3 | 1.1 | 1.09 | 0.85 | 0.318 |
| NCI-H838 | 0.265 | 0.307 |  | 0.292 | 1.13 | 1.11 | 1.17 | 1.19 | 1.17 | 0.247 | 0.256 | 0.254 | 0.252 | 0.233 | 0.876 | 0.888 | 0.894 | 0.808 | 0.869 |
| NCI-H1355 | 0.488 | 0.558 | 0.52 | 0.6 | 0.837 | 0.927 | 0.964 | 0.927 | 0.913 | 1.01 | 1.03 | 0.963 | 1 | 0.998 | 1.11 | 1.13 | 1.09 | 1.11 | 0.97 |
| NCI-H1437 | 0.373 | 0.385 | 0.399 | 0.358 | 1.15 | 1.12 | 1.13 | 1.13 | 1.17 | 0.31 | 0.317 | 0.376 | 0.316 | 0.277 | 0.94 | 1.03 | 0.968 | 0.995 | 0.999 |
| NCI-H1650 | 0.358 | 0.326 | 0.389 | 0.304 | 1.39 | 1.33 | 1.08 | 1.28 | 0.974 | 0.335 | 0.349 | 0.443 | 0.355 | 0.459 | 1.08 | 1.12 | 1.05 | 0.9 | 0.799 |
| NCI-H1651 | 0.727 | 0.845 |  | 0.918 | 1.15 | 1.01 | 1.07 | 0.958 | 1 | 0.58 | 0.588 | 0.591 | 0.6 | 0.617 | 0.8 | 0.869 | 0.818 | 0.85 | 0.864 |
| NCI-H1666 | 0.539 | 0.682 | 0.638 | 0.678 | 0.831 | 0.933 | 0.764 | 0.768 | 0.454 | 0.736 | 0.895 | 0.963 | 0.877 | 0.767 | 0.888 | 0.858 | 0.698 | 0.648 | 0.518 |
